The subject of one data set is SF126. Put plainly: Cell vitality assay (ATP assay, CellTiter-Glo). The data set is classed as cell-based. The conditions noted are these: Homo sapiens, SF-126; SF126, 72 h; Table IIa; read-out: IC50 ATP-Assay after 72 h SF126. A digest of the protocol: (§1)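 Cells (1000/well) incubated 72 h with test compound, top dose 12.5 μM, twofold dilutions, DMSO as reference. Lysis reagent added, luminescence recorded; background from cell-free medium wells.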
Background: Cellular ATP, detected with luciferase, serves as a proxy for viable cell number.

In another data set the test system is U118. Put plainly: Cell vitality assay (ATP assay, CellTiter-Glo). It is filed as cell-based. The conditions noted are these: U118, 72 h; Table IIa; read-out: IC50 ATP-Assay after 72 h U118. The procedure, abridged:
as §1

The next data set relates to indicated cell line. The data set is described as follows: Wound healing migration assay (Table IV). The conditions noted are these: compounds at 12.5, 6.25, 3.125 μM, 48 h-72 h. The data set is classed as cell-based. A digest of the protocol: (§2)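 Cells seeded at 150000/24 well, grown to monolayer overnight, scratched with a pipette tip, then treated with compound at 12.5, 6.25 or 3.125 μM versus DMSO. Stopped by crystal violet fixation at 48-72 h once control wounds closed; IC50 taken as 50% wound size between t0 and t48 or t72.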

A further data set concerns tumor cell. The data set is described as follows: Matrigel outgrowth assay/branching assay (Table Va). The data set is classed as cell-based. The procedure, abridged: (§3)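 Read-out: microscopic images of invasive branching structures at 48 h, 72 h and 96 h. Cells sat on a 3 mg/ml Matrigel layer (set 1 h, 37° C) with compound at 3.125, 1.56 and 0.78 μM or DMSO. A concentration counts as positive only with complete branching inhibition.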

The test system of data set [1] is Hs578T. Put plainly: Matrigel outgrowth assay/branching assay. The data set is classed as cell-based. The following applies: Homo sapiens, Hs-578T; HS578T cell line; Table Ib; read-out: Total branching inhibition in Matrigel HS578T. A digest of the protocol:
as §3

Data set [2] has as its system Hs578T. The data set is described as follows: Wound healing migration assay. The following applies: Homo sapiens, Hs-578T; HS578T cell line; Table Ib. It is filed as cell-based. A digest of the protocol:
as §2

The subject of data set [3] is Hs578T. Put plainly: Cell vitality assay (ATP assay, CellTiter-Glo). It is filed as cell-based. The following applies: Homo sapiens, Hs-578T, 72 h. The procedure, abridged: as §1
Setting [4] is: Homo sapiens, C8161 cells, read-out: IC50 Wound healing Assay C8161.
The mark [5] stands for this setting: SF763 cells, read-out: IC50 Wound healing Assay SF763.
[6] abbreviates: Homo sapiens, C8161 cells, read-out: Total branching inhibition in Matrigel C8161.
Where [7] appears, read: Homo sapiens, Hs-578T, Hs578T cells, read-out: Total branching inhibition in Matrigel Hs578T.
[8] abbreviates: U118 cells, read-out: Total branching inhibition in Matrigel U118.
Setting [9] is: U138 cells, read-out: Total branching inhibition in Matrigel U138.
The mark [10] stands for this setting: HS578T cell line, Table Ib, read-out: IC50 ATP-Assay HS578T after 72 h.
Setting [11] is: Hs578T, Table IIa, read-out: IC50 ATP-Assay after 72 h Hs578T.

Where two headings read alike, the source gives them in different places.

For orientation: melting point means the temperature, or range, at which the solid turns liquid. For `COc1cc2c(Oc3ccc(NS(=O)(=O)c4ccccc4[N+](=O)[O-])cc3F)ccnc2cc1OCCCN1CCN(C)CC1` [Example 21, N-(3-Fluoro-4-{6-methoxy-7-[3-(4-methyl-piperazin-1-yl)-propoxy]-quinolin-4-yloxy}-phenyl)-2-nitro-benzenesulfonamide], the melting point is 125 to 128 °C. For the same compound, the IC50 in the data set on SF126 fell in the range of 12.5 to 50 µM. Further, the IC50 in the data set on U118 fell in the range of 12.5 to 50 µM. The IC50 with indicated cell line (setting [4]) is at most 12.5 µM. Besides, the IC50 with indicated cell line (setting [5]) is 12.5 to 50 µM. Further, the IC50 in the data set with tumor cell (setting [6]) lay in the range of 5 to 50 µM. Besides, the IC50 in the data set on tumor cell (setting [7]) was at most 5 µM. For the same compound, in the data set with tumor cell (setting [8]), the IC50 is 5 to 50 µM. In addition, the IC50 in the data set on tumor cell (setting [9]) is 5 to 50 µM. In addition, the IC50 in the data set on Hs578T [1] was at most 10 µM.
For the compound `COc1cc2c(Oc3ccc(NS(=O)(=O)c4cc(Cl)cc(Cl)c4OC)cc3F)ccnc2cc1OCCCN1CCCCC1` [Example 34, 3,5-Dichloro-N-{3-fluoro-4-[6-methoxy-7-(3-piperidin-1-yl-propoxy)-quinolin-4-yloxy]-phenyl}-2-methoxy-benzenesulfonamide], the melting point was in the range of 173 to 175 °C. This compound also showed an IC50 with Hs578T [2] of at most 12.5 µM. For the same compound, the IC50 with Hs578T [3] (setting [10]) is at most 12.5 µM. The IC50 with indicated cell line (setting [4]) was at most 12.5 µM. Moreover, the IC50 in the data set with indicated cell line (setting [5]) was 12.5 to 50 µM. Also, the IC50 in the data set with tumor cell (setting [6]) was at most 5 µM. For the same compound, the IC50 with tumor cell (setting [7]) is at most 5 µM. The IC50 with tumor cell (setting [8]) was at most 5 µM. The IC50 with tumor cell (setting [9]) lay within 5 to 50 µM. The IC50 in the data set with Hs578T [1] is at most 10 µM.
As for `COc1cc2c(Oc3ccc(NS(=O)(=O)c4cc(Cl)cc(Cl)c4OC)cc3F)ccnc2cc1OCCCN1CCN(C)CC1` [Example 35, 3,5-Dichloro-N-(3-fluoro-4-{6-methoxy-7-[3-(4-methyl-piperazin-1-yl)-propoxy]-quinolin-4-yloxy}-phenyl)-2-methoxy-benzenesulfonamide], the melting point lay within 183 to 185 °C. In addition, the IC50 in the data set with Hs578T [3] (setting [10]) was at most 12.5 µM. Also, in the data set on indicated cell line (setting [4]), the IC50 was at most 12.5 µM. The IC50 with indicated cell line (setting [5]) was at most 12.5 µM. Further, the IC50 in the data set on tumor cell (setting [6]) was at most 5 µM. Moreover, the IC50 with tumor cell (setting [7]) was at most 5 µM. The IC50 with tumor cell (setting [8]) was at most 5 µM. The IC50 in the data set with tumor cell (setting [9]) was in the range of 5 to 50 µM. For the same compound, the IC50 with Hs578T [1] was at most 10 µM.
In the case of `COc1cc2c(Oc3ccc(NS(=O)(=O)c4ccc(F)c(Cl)c4)cc3F)ccnc2cc1OCCCN1CCCC(C)C1` (stereo not drawn) [Example 57, 3-Chloro-4-fluoro-N-(3-fluoro-4-{6-methoxy-7-[3-(3-methyl-piperidin-1-yl)-propoxy]-quinolin-4-yloxy}-phenyl)-benzenesulfonamide], the melting point fell in the range of 124 to 126 °C. The IC50 with Hs578T [2] was at most 12.5 µM. The IC50 in the data set with Hs578T [3] (setting [10]) was at most 12.5 µM. Moreover, in the data set on indicated cell line (setting [4]), the IC50 is at most 12.5 µM. For the same compound, in the data set on indicated cell line (setting [5]), the IC50 lay in the range of 12.5 to 50 µM. In addition, the IC50 in the data set with tumor cell (setting [6]) is 5 to 50 µM. Moreover, the IC50 with tumor cell (setting [7]) is at most 5 µM. The IC50 in the data set with tumor cell (setting [8]) is at most 5 µM. For the same compound, the IC50 in the data set on tumor cell (setting [9]) is at most 5 µM. Also, the IC50 in the data set on Hs578T [1] is at most 10 µM.
`COc1cc2c(Oc3ccc(NS(=O)(=O)c4cccc5ccccc45)cc3F)ccnc2cc1OCCCN1CCCC(C)C1` (stereo not drawn) [Example 58, Naphthalene-1-sulfonic acid (3-fluoro-4-{6-methoxy-7-[3-(3-methyl-piperidin-1-yl)-propoxy]-quinolin-4-yloxy}-phenyl)-amide] displayed a melting point of 131 to 133 °C. In addition, the IC50 with Hs578T [2] was at most 12.5 µM. In addition, the IC50 in the data set with Hs578T [3] (setting [10]) was at most 12.5 µM. The IC50 with indicated cell line (setting [4]) was 12.5 to 50 µM. For the same compound, in the data set on indicated cell line (setting [5]), the IC50 is at most 12.5 µM. Further, the IC50 with tumor cell (setting [6]) was at most 5 µM. Besides, the IC50 in the data set with tumor cell (setting [7]) is at most 5 µM. For the same compound, the IC50 with tumor cell (setting [8]) is at most 5 µM. The IC50 in the data set on tumor cell (setting [9]) is 5 to 50 µM. Besides, the IC50 with Hs578T [1] was at most 10 µM.
The compound `COc1cc2c(Oc3ccc(NS(=O)(=O)c4ccccc4F)cc3F)ccnc2cc1OCCN1CCOCC1` [Example 81, 2-Fluoro-N-{3-fluoro-4-[6-methoxy-7-(2-morpholin-4-yl-ethoxy)-quinolin-4-yloxy]-phenyl}-benzenesulfonamide] showed a melting point of 168 to 169 °C. The compound also had an IC50 with Hs578T [2] of 12.5 to 50 µM. Besides, the IC50 in the data set with Hs578T [3] (setting [10]) was at most 12.5 µM. For the same compound, the IC50 with indicated cell line (setting [4]) was at most 12.5 µM. Moreover, the IC50 in the data set with indicated cell line (setting [5]) lay within 12.5 to 50 µM. Besides, in the data set on tumor cell (setting [6]), the IC50 is at most 5 µM. Further, in the data set on tumor cell (setting [7]), the IC50 was at most 5 µM. In addition, in the data set with tumor cell (setting [8]), the IC50 was 5 to 50 µM. For the same compound, in the data set on tumor cell (setting [9]), the IC50 was 5 to 50 µM. Besides, in the data set with Hs578T [1], the IC50 was at most 10 µM.
As to `COc1cc2c(Oc3ccc(NS(=O)(=O)c4c(F)cccc4F)cc3F)ccnc2cc1OCCN1CCOCC1` [Example 82, 2,6-Difluoro-N-{3-fluoro-4-[6-methoxy-7-(2-morpholin-4-yl-ethoxy)-quinolin-4-yloxy]-phenyl}-benzenesulfonamide], the melting point lay in the range of 182 to 183 °C. For the same compound, the IC50 in the data set with Hs578T [2] lay in the range of 12.5 to 50 µM. In addition, the IC50 in the data set on Hs578T [3] (setting [10]) is at most 12.5 µM. Moreover, the IC50 in the data set on indicated cell line (setting [4]) was at most 12.5 µM. The IC50 in the data set with indicated cell line (setting [5]) was at most 12.5 µM. Moreover, the IC50 with tumor cell (setting [6]) lay within 5 to 50 µM. Further, in the data set on tumor cell (setting [7]), the IC50 is at most 5 µM. Further, the IC50 with tumor cell (setting [8]) is at most 5 µM. Besides, the IC50 with tumor cell (setting [9]) lay in the range of 5 to 50 µM. Besides, the IC50 in the data set on Hs578T [1] is at most 10 µM.
Take `COc1cc2c(Oc3c(Cl)cc(NS(=O)(=O)c4c(F)cccc4F)cc3Cl)ccnc2cc1OCCCN1CCN(C)CC1` [Example 88, N-(3,5-Dichloro-4-{6-methoxy-7-[3-(4-methyl-piperazin-1-yl)-propoxy]-quinolin-4-yloxy}-phenyl)-2,6-difluoro-benzenesulfonamide]: the IC50 is 12.5 to 50 µM in the data set on SF126; at most 12.5 µM in the data set on U118; at most 12.5 µM with Hs578T [3] (setting [11]); 12.5 to 50 µM with indicated cell line (setting [4]); at most 12.5 µM in the data set on indicated cell line (setting [5]); at most 5 µM in the data set on tumor cell (setting [6]). Moreover, the IC50 with tumor cell (setting [7]) lay in the range of 5 to 50 µM; in the data set with tumor cell (setting [8]), 5 to 50 µM; with tumor cell (setting [9]), 5 to 50 µM; with Hs578T [1] it was 10 to 25 µM.
As to `COc1cc2c(Oc3ccc(NS(=O)(=O)c4ccccc4C(F)(F)F)cc3F)ccnc2cc1OCCCNC1CCOCC1` [Example 95, N-(3-Fluoro-4-{6-methoxy-7-[3-(tetrahydro-pyran-4-ylamino)-propoxy]-quinolin-4-yloxy}-phenyl)-2-trifluoromethyl-benzenesulfonamide], the IC50 is at most 12.5 µM in the data set on SF126; at most 12.5 µM in the data set with U118; 12.5 to 50 µM in the data set on Hs578T [3] (setting [11]); 12.5 to 50 µM in the data set on indicated cell line (setting [4]); 12.5 to 50 µM in the data set with indicated cell line (setting [5]); at most 5 µM with tumor cell (setting [6]). Besides, the IC50 in the data set on tumor cell (setting [7]) was at most 5 µM; in the data set with tumor cell (setting [8]), 5 to 50 µM; with tumor cell (setting [9]), 5 to 50 µM; in the data set on Hs578T [1], at most 10 µM.
With `COc1cc2c(Oc3cccc(NS(=O)(=O)c4ccccc4C(F)(F)F)c3)ccnc2cc1OCCCN1CCN(C)CC1` [Example 102, N-(3-{6-Methoxy-7-[3-(4-methyl-piperazin-1-yl)-propoxy]-quinolin-4-yloxy}-phenyl)-2-trifluoromethyl-benzenesulfonamide], the melting point lay within 155 to 156 °C. Moreover, the IC50 with Hs578T [2] was at most 12.5 µM. For the same compound, in the data set on Hs578T [3] (setting [10]), the IC50 is at most 12.5 µM. Besides, in the data set with indicated cell line (setting [4]), the IC50 fell in the range of 12.5 to 50 µM. In addition, in the data set with indicated cell line (setting [5]), the IC50 is at most 12.5 µM. Also, in the data set on tumor cell (setting [6]), the IC50 was at most 5 µM. Further, the IC50 in the data set on tumor cell (setting [7]) was at most 5 µM. In addition, in the data set with tumor cell (setting [8]), the IC50 is at most 5 µM. Also, the IC50 with tumor cell (setting [9]) lay within 5 to 50 µM. The IC50 in the data set with Hs578T [1] lay within 10 to 25 µM.

(Values after patent publication US9169241B2, “Quinolinyloxyphenylsulfonamides” (Max-Planck-Gesellschaft Zur Forderung der Wissenschaften …, priority 2009, dated 2015).)
